Assay results taken from patent US20250304623A1, “PEPTIDES FOR INTRACELLULAR DELIVERY” (UNIVERSIDADE DE SANTIAGO DE COMPOSTELA, priority 2022, published 2025).
*: point of attachment. NHNH2 = NN*

Tests used:
Assay type in all cases: cell-based
[1] = test system: HepG2 cells expressing EGFP; test: EGFP-targeting siRNA delivery (GFP silencing vs siMOCK), HepG2
Experimental: (§1) To generate an EGFP expressing HeLa cell line, HeLa cells were transfected with EGFP pDNA (pEGFP-C1, Clontech) and stable transfectants were selected with 400 μg/mL of G-418 (Millipore). Green clones were selected by epifluorescence microscopy and tested for EGFP expression stability through several passages. […] All other EGFP-expressing cell lines were obtained in a similar way from parent non-EGFP-expressing cell lines.
Cells expressing EGFP were seeded in a 96 well plate the day before the experiment at a concentration of 50,000 cell/mL (100 μL/w) in DMEM+10% FBS+1% Gln-Abt. For robotic library screening, the delivery of an EGFP-targeting siRNA (EGFP: enhanced green fluorescent protein, Ambion® Silencer® GFP Positive Control siRNA (siGFP) (AM4626)) in six different cell lines expressing EGFP was performed. […] The mixture was shaken for 30 min at room temperature (rt) before the addition to the cells. The cell medium was aspirated, and cells were washed twice with PBS. Finally, 50 μL of the solution of siRNA/amphiphile complexes were added to the cells and incubated for 4 h. After transfection, the medium was replaced by 100 μL of fresh DMEM supplemented with 10% FBS. The fluorescence knockdown was quantified after 72 h in a plate reader, by comparison with cells transfected with a non-targeting siRNA control (siMOCK, Silencer™ Negative Control No. 1 siRNA (siMOCK) (AM4611)). EGFP knockdown was compared with Lipofectamine® RNAiMAX silencing efficiency (30-60% depending on cell line, defined with a numeric value in the below tables). All experiments were done in triplicate.
(§2) Tables 1-7: RLuc (pDNA) or EGFP (mRNA) expression levels were normalized to Lipofectamine reagents (value=1) and expressed as fold-times signal increase. In the case of siRNA, the siRNA treated cells fluorescence was compared with siMOCK control fluorescence, while Cas9-RNP mediated knockout was measured against the fluorescence of untreated cells. In both siRNA and Cas9-RNP, values are expressed as % fluorescence reduction. Amphiphile concentration was 5 μM in all cases. All experiments were performed in triplicate.
Tables 20-25 show the mean (triplicates) percentage of GFP-silencing, accounted by fluorescence intensity decrease relative to a non-targeting siRNA (siMOCK) control, measured after the transfection of siRNA by different amphiphiles at different concentrations in a variety of cell lines. Background values, accounted by untreated control cells, were subtracted for processing.

[2] = test system: Hek293 cells expressing EGFP; test: Cas9-RNP delivery against EGFP (gene editing, plate reader), Hek293
Experimental: as §1
Cells expressing EGFP were seeded in a 96 well plate the day before the experiment at a concentration of 50,000 cell/mL (100 μL/w) in DMEM+10% FBS+1% Gln-Abt. For robotic library screening, the delivery of Cas9-RNP against EGFP (RNP designed to knock-out the gene encoding for the enhanced green fluorescent protein (EGFP)) was performed. For RNP assembly, 9.2 μL of crRNA and 9.2 μL of tracrRNA were mixed in 211.6 μL of Nuclease-Free Duplex Buffer (IDT), incubated for 5 min at 95° C. and slowly cooled at rt (see I. Lostalé-Seijo, et al. Peptide/Cas9 nanostructures for ribonucleoprotein cell membrane transport and gene edition, Chem. Sci., 2017). Cas9 protein was dissolved in DMEM at a final concentration of 4 μM and equal volumes of the RNA complex and Cas9 were mixed and incubated for 5 min at rt. 75 μL of the corresponding amphiphile concentrations were added to 5 μL of RNP at 2 μM. The mixture was shaken for 30 min at room temperature before the addition to the cells. The cell medium was aspirated, and cells were washed twice with PBS. Cells were covered with 30 μL of DMEM and 20 μL of the RNP/amphiphile complexes were added to the cells (final peptide concentrations=2.5, 5 and 10 μM; final Cas9-RNP concentration=50 nM) and incubated for 4 h. After the incubation, the medium was replaced by 100 μL of fresh DMEM supplemented with 10% FBS. The total EGFP fluorescence was quantified after 72 h in a plate reader (FIG. 2, Table 1 (right) and Table 6). All experiments were done in triplicate. […]
Tables 26-31 show the mean (triplicates) percentage of gene editing, accounted by GFP fluorescence intensity decrease (% of reduction), measured after the transfection of Cas9-RNP by different amphiphiles at different concentrations in a variety of cell lines. Background values, accounted by untreated control cells, were subtracted for processing.

[3] = test system: Hek293 cells; test: EGFP mRNA delivery, robotic library screening, Hek293
Experimental: Cells were seeded in a 96 well plate the day before the experiment at a concentration of 50,000 cell/mL (100 μL/w) in DMEM+10% FBS+1% Gln-Abt. For robotic library screening, the delivery of EGFP-mRNA (from TriLink, fully substituted with 5-methoxyuridine, capped and polyadenylated; TriLink, CleanCap® EGFP mRNA (5moU), ref. L-7201) in six different cell lines was performed. Amphiphilic molecule stock solutions were prepared in DMSO as described above and diluted in DMEM to afford a range of concentrations. The solutions of EGFP-mRNA/amphiphilic molecule complexes were freshly prepared prior to the transfection experiments. 35 μL of the corresponding amphiphile were added to 10 μL of a solution of EGFP-mRNA at 10 ng/μL in DMEM. The mixture was shaken for 30 min at room temperature before the addition to the cells. The cell medium was aspirated, and cells were washed with PBS twice. Cells were covered with 39 μL of DMEM and 11 μL of the complex's solution were added to the cells and incubated for 4 h (final concentration of peptide=2.5, 5 and 10 μM; final concentration of EGFP-mRNA=25 ng/well). After the incubation, the medium was replaced by 100 μL of fresh DMEM supplemented with 10% FBS. The total EGFP fluorescence was quantified after 72 h in a well plate reader. Amphiphile transfection efficiency was compared and normalized to Lipofectamine® MessengerMax efficiency (value of 1 in Tables 1-5 and 7; double underlined numbers). All experiments were done in triplicate.
as §2
Tables 14-19 show the mean (triplicates) fluorescence intensity measured after the transfection of EGFP mRNA by different amphiphiles at different concentrations in a variety of cell lines. Background fluorescence values, accounted by untreated control cells, were subtracted for processing.

Row | Substance | percentage of GFP-silencing relative to siMOCK ([1]; Dodecanal, 10 μM) [%] | percentage of GFP-silencing relative to siMOCK ([1]; Dodecanal, 15 μM) [%] | percentage of GFP-silencing relative to siMOCK ([1]; Myristoleyl, 15 μM) [%] | percentage of GFP-silencing relative to siMOCK ([1]; Oleyl, 10 μM) [%] | percentage of GFP-silencing relative to siMOCK ([1]; Palmitoleyl, 5 μM) [%] | percentage of GFP-silencing relative to siMOCK ([1]; Palmitoleyl, 15 μM) [%] | percentage of GFP-silencing relative to siMOCK ([1]; Petroselinyl, 5 μM) [%] | percentage of GFP-silencing relative to siMOCK ([1]; Petroselinyl, 10 μM) [%] | percentage of gene editing, GFP fluorescence intensity decrease (% of reduction) ([2]; Palmitoleyl, 5 μM) [%] | percentage of gene editing, GFP fluorescence intensity decrease (% of reduction) ([2]; Palmitoleyl, 15 μM) [%] | percentage of gene editing, GFP fluorescence intensity decrease (% of reduction) ([2]; Petroselinyl, 5 μM) [%] | percentage of gene editing, GFP fluorescence intensity decrease (% of reduction) ([2]; Petroselinyl, 10 μM) [%] | mean fluorescence intensity (EGFP mRNA) ([3]; Oleyl, 2.5 μM) | mean fluorescence intensity (EGFP mRNA) ([3]; Oleyl, 5 μM) | mean fluorescence intensity (EGFP mRNA) ([3]; Oleyl, 10 μM) | mean fluorescence intensity (EGFP mRNA) ([3]; Petroselinyl, 2.5 μM) | mean fluorescence intensity (EGFP mRNA) ([3]; Petroselinyl, 5 μM) | mean fluorescence intensity (EGFP mRNA) ([3]; Petroselinyl, 10 μM) | percentage of gene editing, GFP fluorescence intensity decrease (% of reduction) ([2]; Dodecanal, 5 μM) [%] | percentage of gene editing, GFP fluorescence intensity decrease (% of reduction) ([2]; Dodecanal, 10 μM) [%] | other results
1 | Ac-RRLK*RLLRRLK*RLK*RRL-NH2 (Ac-RRLK(NHNH2)RLLRRLK(NHNH2)RLK(NHNH2)RRL-NH2; not fully specified; printed as Ac-RRLK*RLLRRLK*RLK*RRL-NH2; also: K*4,K*11,K*14: native or modified lysine (ε-amide to a linker)) [Peptide 17.3] | 18 | −4 | −18 | 8 | 4 | −2 | −11 | 5 | −19 | −34 | 2 | −37 |  |  |  |  |  |  |  |  | percentage of GFP-silencing relative to siMOCK ([1]; Dodecanal, 5 μM): 13%; percentage of gene editing, GFP fluorescence intensity decrease (% of reduction) ([2]; Palmitoleyl, 10 μM): −32%
2 | Ac-RK*LRRK*LRK*-NH2 (Ac-RK(NHNH2)LRRK(NHNH2)LRK(NHNH2)-NH2; not fully specified; printed as Ac-RK*LRRK*LRK*-NH2; also: K*2,K*6,K*9: native or modified lysine (ε-amide to a linker)) [Peptide 9.3] |  |  | 6 | −9 | −2 | −2 |  |  |  |  | −12 |  | 1416 | 2885 | 466 | 1364 | 4636 | 643 | −11 | −53 | mean fluorescence intensity (EGFP mRNA) ([3]; Palmitoleyl, 5 μM): 1665; mean fluorescence intensity (EGFP mRNA) ([3]; Palmitoleyl, 10 μM): 1394; percentage of GFP-silencing relative to siMOCK ([1]; Myristoleyl, 5 μM): −11%; percentage of GFP-silencing relative to siMOCK ([1]; Petroselinyl, 15 μM): −3%; percentage of gene editing, GFP fluorescence intensity decrease (% of reduction) ([2]; Oleyl, 5 μM): 12%; percentage of gene editing, GFP fluorescence intensity decrease (% of reduction) ([2]; Oleyl, 10 μM): −5%
3 | Ac-RRLK*RLLRRLK*RL-NH2 (Ac-RRLK(NHNH2)RLLRRLK(NHNH2)RL-NH2; not fully specified; printed as Ac-RRLK*RLLRRLK*RL-NH2; also: K*4,K*11: native or modified lysine (ε-amide to a linker)) [Peptide 13.2] | 13 | −5 |  |  | 16 | 7 | −11 | 2 |  |  |  |  | 955 | 666 | 791 |  |  |  | −23 | −26 | mean fluorescence intensity (EGFP mRNA) ([3]; Dodecanal, 5 μM): 678; mean fluorescence intensity (EGFP mRNA) ([3]; Dodecanal, 10 μM): 520; percentage of GFP-silencing relative to siMOCK ([1]; Palmitoleyl, 10 μM): 4%; percentage of GFP-silencing relative to siMOCK ([1]; Petroselinyl, 15 μM): 0%; percentage of gene editing, GFP fluorescence intensity decrease (% of reduction) ([2]; Oleyl, 10 μM): −10%; percentage of gene editing, GFP fluorescence intensity decrease (% of reduction) ([2]; Oleyl, 15 μM): −13%
4 | Ac-RHLK*RHK*RRLK*RH-NH2 (Ac-RHLKRHKRRLKRH-NH2; not fully specified (residues 4, 7, 11); printed as Ac-RHLK*RHK*RRLK*RH-NH2; also: linker on K* not given here) [13(3His)] |  |  |  |  |  |  | −1 | 19 | −16 | −47 | 21 | 4 | 2611 | 735 | 1303 | 3629 | 2394 | 2964 | −4 |  | mean fluorescence intensity (EGFP mRNA) ([3]; Dodecanal, 5 μM): 1878; mean fluorescence intensity (EGFP mRNA) ([3]; Dodecanal, 10 μM): 1687; mean fluorescence intensity (EGFP mRNA) ([3]; Myristoleyl, 2.5 μM): 2039; mean fluorescence intensity (EGFP mRNA) ([3]; Myristoleyl, 5 μM): 1952; mean fluorescence intensity (EGFP mRNA) ([3]; Myristoleyl, 10 μM): 3636; percentage of GFP-silencing relative to siMOCK ([1]; Myristoleyl, 10 μM): 8%; percentage of GFP-silencing relative to siMOCK ([1]; Palmitoleyl, 10 μM): 6%; percentage of gene editing, GFP fluorescence intensity decrease (% of reduction) ([2]; Myristoleyl, 5 μM): −13%; percentage of gene editing, GFP fluorescence intensity decrease (% of reduction) ([2]; Petroselinyl, 15 μM): −13%
5 | Ac-RK*LRRLLRK*-NH2 (Ac-RK(NHNH2)LRRLLRK(NHNH2)-NH2; not fully specified; printed as Ac-RK*LRRLLRK*-NH2; also: K*2,K*9: native or modified lysine (ε-amide to a linker)) [Peptide 9.2] |  |  | −22 |  |  |  |  |  |  |  |  |  |  |  |  |  |  |  | −38 | −55 | percentage of GFP-silencing relative to siMOCK ([1]; Myristoleyl, 5 μM): −22%
